Patent publication US8124594B2, “Methods using phosphatidylserine, lysophosphatidylserine, and/or salts thereof to increase testosterone levels” (Chemi Nutra, LLC, priority 2007, dated 2012)

Legend:
healthy male subjects = test: Plasma testosterone response to moderate intensity cycle ergometer exercise after 10 days of oral PS or placebo (double-blind crossover); format: in vivo, human
Description: The purpose of the current study was to investigate the efficacy of short-term S-PS supplementation, at dosage levels less than the currently established dose, on testosterone response to acute moderate-intensity exercise. This study aimed to examine the influence of short-term supplementation with a moderate dose of PS (600 mg per day) on plasma concentrations of testosterone before, during, and following moderate intensity exercise in healthy males. 10 healthy male subjects participated in the study. Each subject was assigned to ingest 600 mg PS or placebo per day for 10 days using a double-blind, placebo-controlled, crossover design. Serial venous blood samples were taken at rest, after a 15 minute moderate intensity exercise protocol on a cycle ergometer that consisted of five 3-minute incremental stages beginning at 65% and ending at 85% VO2max, and during a 65 minute passive recovery. Plasma samples were assessed for testosterone for treatment (PS or placebo). PS increased AUC for testosterone to cortisol ratio (184±5%) when compared to placebo (p<0.05).
Subjects. Ten healthy males participated in this study. All subjects in this investigation participated in a familiarization session. During the familiarization session, subjects were informed as to the experimental procedures, completed a personal/medical history form, and signed informed consent statements in adherence with the human subject's guidelines of the American College of Sports Medicine. No subject in this trial was a vegetarian with all subjects reportedly consuming meat in their daily diet.
Each participant completed three testing sessions during the 21-day study. Participants performed a graded exercise test (starting at 50 W, increasing by 50 W increments every 2 minutes) on a cycle ergometer (Gary Fisher Tarpon OS Series Mountain Bike connected to a Computrainer Pro model 8002 RacerMate EBRA™ Approved System with software version 1.1.59) to assess maximal oxygen consumption (VO2max), and were scheduled for testing sessions 2 and 3 (day 11 and day 21). VO2max was determined using a Sensormedic V229 Metabolic System that was calibrated following the recommended technical guidelines (Sensormedics Corporation, Yorba Linda, Calif.). Upon completion of the VO2max test the participants were randomly assigned to one of two groups and received a 10-day supply of either the placebo or PS (600 mg per day of soy-derived PS).
The second and third exercise sessions were performed to determine testosterone responses to exercise induced stress at rest, during exercise, and recovery. On the tenth day of supplementation the participants ingested the last dose of the assigned substance (PS or placebo) and reported to the laboratory at 7 am after an overnight fast. Venous blood samples were taken on arrival (−30) and 30 minutes later, which was just prior to the start of exercise (0). Following the 30 minute rest period, the participants were asked to begin exercising on the cycle ergometer at an exercise intensity calculated to elicit 65% of VO2max. The intensity of exercise was increased automatically by 5% every 3-minute increment until the intensity was at 85% of VO2max (five-three minute stages). After cycling for a total of 15 minutes, the subject stopped exercising and a post-exercise venous blood sample was taken immediately. […]

cortisol response [1] = conditions: 800 mg, cited from earlier work
older males = test: Effect of PS supplementation on serum and free testosterone of older males with exercise regimens; format: in vivo, human
Description: A. subject three, a physically active non smoking […] who took no prescription drugs or alcohol was the first subject. Starting on Day 1, the person consumed 600 mg of Phosphatidylserine (Chemi Nutra, Inc., White Bear Lake, Minn.) for 11 days accompanied by the following cardio and resistance workouts: • Day 1: lifted weights for 1.5 hours and intense cardio exercise, 12 minutes. • Day 2: intense cardio exercise for 28 minutes. • Day 3: easy pace walk, 1.5 mile. • Day 4: intense cardio exercise for 35 minutes. • Day 5: easy pace walk, 2 miles. • Day 6: lifted weights for 1.5 hours. • Days 7 and 8: rest, no exercise. • Day 9 intense cardio exercise, 35 minutes and 12 miles easy pace walk • Day 10: lifted weights 1.5 hours. Blood was drawn at 8:00 am on the first and eleventh day of the study and analyzed for serum and free testosterone by Life Extension National Diagnostics, Inc., Ft. Lauderdale, Fla. Serum testosterone rose from 575 nanograms per decilitier to 665 nanograms per deciliter, a 16% increase. B. The second subject (RJ) is a person. Starting on day 1, RJ consumed 400 mg PS daily for 11 days, accompanied by the following exercise regimens: • Day 2: bicycle ergometer for 30 minutes and elliptical trainer for 30 minutes. • Day 3: tennis singles match for 1.5 hours. • Day 4: treadmill 15 minutes and upper body resistance exercise for 1 hour. • Day 5: elliptical trainer for 45 minutes and resistance exercise for 30 minutes. • Day 6: rest. • Day 7: treadmill for 30 minutes; elliptical trainer for 30 minutes; resistance exercise for 30 minutes. • Day 8: rest. • Day 9: resistance exercise 1.5 hours. • Day 10 elliptical trainer for 1 hour. • Day 11: upper body resistance exercise for 30 minutes. Serum testosterone levels and free testosterone levels were measured on days 1 and 12. Serum testosterone increased from 290 nanograms/deciliter to 437 nanograms/deciliter, an increase of 51%. Free testosterone increased from 11.4 picograms/ml to 18.0 picograms/ml, an increase of 58%. C. The third subject is person one. The person consumed 300 mg PS (Chemi Nutra) daily for 11 days accompanied by a cardio and resistance training workout on days 2-11: • Day 2: 9 miles cycling for 35 minutes; 4 miles running for 40 minutes; 9 miles cycling for 40 minutes. • Day 3: tennis singles match for 1.5 hours. • Day 4: 9 miles cycling for 45 minutes; whole body resistance training for 1 hour; 9 miles cycling for 50 minutes. • Day 5: 9 miles cycling for 30 minutes; 5 miles running for 45 minutes; 9 miles cycling for 30 minutes • Day 6: rest. • Day 7: rest. • Day 8: resistance training 1.5 hours. • Day 9: 9 miles cycling for 50 minutes; upper body resistance exercise 1 hour; 9 miles cycling for 50 minutes. • Day 10: high-intensity resistance training for 30 minutes. • Day 11: 5 miles running for 50 minutes. Serum testosterone levels and free testosterone levels were measured on days 1 and 12. Serum testosterone increased from 734 nanograms/deciliter to 781 nanograms/deciliter, an increase of 6.4%. Free testosterone increased from 22.1 picograms/ml to 27.0 picograms/ml, an increase of 22%.

cortisol response [2] = conditions: cited from earlier work
[3] = subject one, 300 mg daily for 11 days
[4] = subject two, 400 mg daily for 11 days

## phosphatidylserine [PS]
Healthy male subjects; 600 mg PS per day oral for 10 days, 10 healthy males, p<0.05
  increase of AUC for testosterone to cortisol ratio compared to placebo: 184±5%
Healthy male subjects; 600 mg/day S-PS for 10 days
  increase of plasma testosterone concentrations compared with placebo: 51±6%
  plasma testosterone levels at the beginning of the exercise compared to placebo: higher plasma testosterone levels
Healthy male subjects; 600 mg/day S-PS for 10 days, FIG. 2, p=0.02
  increase of testosterone area under the curve versus placebo: 37±5%
Healthy male subjects; 600 mg/day S-PS for 10 days, plasma, placebo 5.5±0.3, P (treatment) 0.13
  mean peak concentration of testosterone: 8.3 ± 1.7 ng/mL
Cortisol response [1]
  reduction of cortisol response to intensive resistance training: 20%
Cortisol response [1]; intensive resistance training
  effect on testosterone levels: no effect
Older males; [3]
  increase of free testosterone: 22%
  increase of serum testosterone: 6.4%
Older males; subject one, 300 mg daily for 11 days, day 12, day 1 22.1
  free testosterone after treatment: 27.0 picograms/ml
Older males; subject one, 300 mg daily for 11 days, day 12, day 1 734
  serum testosterone after treatment: 781 nanograms/deciliter
Older males; subject three, 600 mg for 11 days
  increase of serum testosterone: 16%
Older males; subject three, 600 mg for 11 days, eleventh day, first day 575
  serum testosterone after treatment: 665 nanograms per deciliter
Older males; [4]
  increase of free testosterone: 58%
  increase of serum testosterone: 51%
Older males; subject two, 400 mg daily for 11 days, day 12, day 1 11.4
  free testosterone after treatment: 18.0 picograms/ml
Older males; subject two, 400 mg daily for 11 days, day 12, day 1 290
  serum testosterone after treatment: 437 nanograms/deciliter
Cortisol response [2]; 400 mg
  cortisol response compared to placebo: no significant result
Cortisol response [2]; 800 mg supplementation
  lowering of cortisol response: 30%
